Assay results from ChEMBL document CHEMBL1201862, “PubChem BioAssay data set” (2004).
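Each compound was tested at five concentrations against cells in 96-well plates for 48 hours. GI50: concentration for 50% inhibition of growth.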 The source made the active and inactive calls. No stated cut-off is given here; in the data, active = GI50 up to about 1.1 µM and inactive = higher.

Tests used:
Assay in all cases: DTP human tumour cell line panel, 48 h
786-0 = system: 786-0
A498 = system: A498
A549 = system: A549
ACHN = system: ACHN
BT-549 = system: BT-549
CAKI-1 = system: CAKI-1
CCRF-CEM = system: CCRF-CEM
COLO 205 = system: COLO 205
DU-145 = system: DU-145
EKVX = system: EKVX
HCC 2998 = system: HCC 2998
HCT-116 = system: HCT-116
HCT-15 = system: HCT-15
HL-60 = system: HL-60
HOP-62 = system: HOP-62
HOP-92 = system: HOP-92
HT-29 = system: HT-29
Hs-578T = system: Hs-578T
IGROV-1 = system: IGROV-1
K562 = system: K562
KM12 = system: KM12
LOX IMVI = system: LOX IMVI
M14 = system: M14
MCF7 = system: MCF7
MDA-MB-231 = system: MDA-MB-231
MDA-MB-435 = system: MDA-MB-435
MDA-N = system: MDA-N
MOLT-4 = system: MOLT-4
Malme-3M = system: Malme-3M
NCI-H226 = system: NCI-H226
NCI-H23 = system: NCI-H23
NCI-H460 = system: NCI-H460
NCI-H522 = system: NCI-H522
NCI/ADR-RES = system: NCI/ADR-RES
OVCAR-3 = system: OVCAR-3
OVCAR-4 = system: OVCAR-4
OVCAR-5 = system: OVCAR-5
OVCAR-8 = system: OVCAR-8
PC-3 = system: PC-3
RPMI-8226 = system: RPMI-8226
RXF 393 = system: RXF 393
SF-268 = system: SF-268
SF-295 = system: SF-295
SF-539 = system: SF-539
SK-MEL-28 = system: SK-MEL-28
SK-MEL-2 = system: SK-MEL-2
SK-MEL-5 = system: SK-MEL-5
SK-OV-3 = system: SK-OV-3
SN12C = system: SN12C
SNB-19 = system: SNB-19
SNB-75 = system: SNB-75
SR = system: SR
SW-620 = system: SW-620
T47D = system: T47D
TK-10 = system: TK-10
U-251 = system: U-251
UACC-257 = system: UACC-257
UACC-62 = system: UACC-62
UO-31 = system: UO-31
DLD-1 = system: DLD-1
DMS-114 = system: DMS-114
KM-20L2 = system: KM-20L2
LXFL 529 = system: LXFL 529

Measured: GI50

CN(C)CCCC1c2ccccc2Oc2ccc(C(F)(F)F)cc21 (configuration not stated)
16.1 µM: HCT-15
inactive: 786-0 12.4 µM | A498 10.8 µM | A549 14.9 µM | ACHN 16.7 µM | BT-549 14.2 µM | CAKI-1 12.9 µM | CCRF-CEM 9.42 µM | COLO 205 4.65 µM | DU-145 17.2 µM | EKVX 15.9 µM | HCC 2998 1.63 µM | HCT-116 11.7 µM | HL-60 12.1 µM | HOP-62 16.5 µM | HOP-92 11.9 µM | HT-29 5.28 µM | Hs-578T 14.5 µM | IGROV-1 14 µM | K562 5.9 µM | KM12 14.2 µM | LOX IMVI 15.6 µM | M14 5.75 µM | MCF7 12.7 µM | MDA-MB-231 12.8 µM | MDA-MB-435 6.64 µM | MDA-N 4.02 µM | MOLT-4 6.64 µM | Malme-3M 2.79 µM | NCI-H226 8.2 µM | NCI-H23 16 µM | NCI-H460 15 µM | NCI-H522 14.3 µM | NCI/ADR-RES 13.7 µM | OVCAR-3 15.3 µM | OVCAR-4 14.5 µM | OVCAR-5 14.9 µM | OVCAR-8 16.8 µM | PC-3 13.7 µM | RPMI-8226 8.2 µM | RXF 393 7.19 µM | SF-268 14.3 µM | SF-295 16.5 µM | SF-539 13.3 µM | SK-MEL-28 6.46 µM | SK-MEL-2 14.6 µM | SK-MEL-5 7.45 µM | SK-OV-3 16.8 µM | SN12C 13.5 µM | SNB-19 16.7 µM | SNB-75 14.3 µM | SR 7.28 µM | SW-620 15.4 µM | T47D 14.6 µM | TK-10 15.6 µM | U-251 11.4 µM | UACC-257 11.6 µM | UACC-62 9.42 µM | UO-31 1.82 µM

Oc1c(C(Nc2ccccn2)c2ccccc2)ccc2cccnc12 (configuration not stated)
inactive: 786-0 2.76 µM | A498 10.2 µM | A549 4.35 µM | ACHN 3.56 µM | BT-549 5.25 µM | CAKI-1 4.09 µM | CCRF-CEM 1.37 µM | COLO 205 4.74 µM | DU-145 4.05 µM | EKVX 3.01 µM | HCC 2998 49.9 µM | HCT-116 3.26 µM | HL-60 2.28 µM | HOP-62 4.94 µM | HOP-92 1.94 µM | HT-29 4.55 µM | Hs-578T 12.4 µM | IGROV-1 3.33 µM | K562 3.22 µM | KM12 4.59 µM | LOX IMVI 2.77 µM | M14 3.08 µM | MCF7 4.04 µM | MDA-MB-231 3.08 µM | MDA-MB-435 5.73 µM | MDA-N 5.7 µM | MOLT-4 2.39 µM | Malme-3M 1.46 µM | NCI-H226 2.59 µM | NCI-H23 3.6 µM | NCI-H460 2.11 µM | NCI-H522 2.68 µM | NCI/ADR-RES 1.82 µM | OVCAR-3 2.51 µM | OVCAR-4 3.5 µM | OVCAR-5 7.78 µM | OVCAR-8 4.01 µM | PC-3 3.39 µM | RPMI-8226 2.56 µM | RXF 393 3.84 µM | SF-268 2.94 µM | SF-295 3.55 µM | SF-539 3.18 µM | SK-MEL-28 6.22 µM | SK-MEL-2 3.55 µM | SK-MEL-5 3.66 µM | SK-OV-3 9.4 µM | SN12C 1.24 µM | SNB-19 5.51 µM | SNB-75 6.24 µM | SR 2.31 µM | SW-620 7.13 µM | T47D 3.94 µM | TK-10 4.99 µM | U-251 2.72 µM | UACC-257 7.8 µM | UACC-62 4.33 µM | UO-31 3.14 µM
1.98 µM: HCT-15

CN1CCN(CN2C(=O)C3C4C=CC(C3C2=O)C2C3C(=O)N(CN5CCN(C)CC5)C(=O)C3C42)CC1 (configuration not stated)
inactive: 786-0 18.4 µM | A498 > 100 µM | A549 18.6 µM | ACHN 19.1 µM | CCRF-CEM 22 µM | COLO 205 20.2 µM | DLD-1 24.1 µM | DMS-114 19.6 µM | HCC 2998 27.7 µM | HCT-116 13 µM | HT-29 45.9 µM | IGROV-1 42.6 µM | K562 28.2 µM | KM-20L2 25.5 µM | KM12 32.7 µM | LOX IMVI 17.4 µM | LXFL 529 23.8 µM | M14 21.3 µM | MOLT-4 29.9 µM | NCI-H23 28.7 µM | NCI-H460 13.5 µM | NCI-H522 12.5 µM | OVCAR-3 29.1 µM | OVCAR-4 24.5 µM | OVCAR-5 22.1 µM | OVCAR-8 24.7 µM | RPMI-8226 34.2 µM | RXF 393 20.7 µM | SF-268 17.2 µM | SF-539 24.7 µM | SK-MEL-28 19.3 µM | SK-MEL-5 30.4 µM | SN12C 22.5 µM | SNB-75 27.7 µM | SW-620 16.4 µM | TK-10 31.1 µM | U-251 18.2 µM | UACC-62 24.1 µM | UO-31 32.1 µM
14.6 µM: HCT-15

COc1cc2cc3c4c(cc(OC)c(OC)c4c2cc1OC)CCN3C
inactive: 786-0 4.29 µM | A498 6.84 µM | A549 9.53 µM | ACHN 3.66 µM | BT-549 6.46 µM | CAKI-1 4.86 µM | CCRF-CEM 1.36 µM | COLO 205 7.64 µM | DU-145 4.97 µM | EKVX 15.3 µM | HCC 2998 7.41 µM | HCT-116 5.96 µM | HL-60 5.3 µM | HOP-62 11.9 µM | HOP-92 9.93 µM | HT-29 6.89 µM | Hs-578T 2.63 µM | IGROV-1 4.21 µM | K562 6.19 µM | KM12 11 µM | LOX IMVI 5.25 µM | M14 6.9 µM | MCF7 2.63 µM | MDA-MB-231 7.73 µM | MDA-MB-435 5.56 µM | MDA-N 13.1 µM | MOLT-4 2.41 µM | Malme-3M 8.53 µM | NCI-H226 7.35 µM | NCI-H23 12.8 µM | NCI-H460 2.65 µM | NCI-H522 2.58 µM | NCI/ADR-RES 4.2 µM | OVCAR-3 8.05 µM | OVCAR-4 2.51 µM | OVCAR-5 21 µM | OVCAR-8 12.7 µM | PC-3 3.52 µM | RPMI-8226 2.72 µM | RXF 393 1.83 µM | SF-268 8.53 µM | SF-295 3.07 µM | SF-539 9.25 µM | SK-MEL-28 18.1 µM | SK-MEL-2 10.3 µM | SK-MEL-5 6.03 µM | SK-OV-3 9.18 µM | SN12C 7.38 µM | SNB-19 12.5 µM | SNB-75 8.13 µM | SR 1.25 µM | SW-620 7.36 µM | T47D 1.67 µM | TK-10 4.42 µM | U-251 3.58 µM | UACC-257 9.12 µM | UACC-62 4.83 µM | UO-31 2.11 µM
6.84 µM: HCT-15
